Assay results reported in patent US20260137662A1, “CD11B AGONISTS FOR TREATMENT OF AUTOIMMUNE DISEASE” (Rush University Medical Center, priority 2022, published 2026).

Tested on: NFkB pathway
Test: Gene expression in RAW 264.7 myeloid cells with NFkB inhibitor
Type: cell-based, murine
Details: presence of NFkB inhibitor; LPS-treated cells, 8 hours
Description: FIG. 6A illustrates gene expression of PLAUR in myeloid cells treated with NFkB inhibitor BMS 345541 and then subsequently treated for 8 hours with LA 1(20 uM), LPS (12.5, 25, 50, 100, or 250 ng/ml), or LPS and LA1 co-treatment (L+L).
FIG. 6B illustrates gene expression of NLRP3 in myeloid cells treated with NFkB inhibitor BMS 345541 and then subsequently treated for 8 hours with LA 1(20 uM), LPS (12.5, 25, 50, 100, or 250 ng/ml), or LPS and LA1 co-treatment (L+L).
FIG. 6C illustrates gene expression of and IL-6 in myeloid cells treated with NFkB inhibitor BMS 345541 and then subsequently treated for 8 hours with LA 1(20 uM), LPS (12.5, 25, 50, 100, or 250 ng/ml), or LPS and LA1 co-treatment (L+L).
In order to determine potential molecular mechanisms resulting in uPAR expression, the association between uPAR/suPAR and other inflammatory cytokines and the NFkB pathway were investigated. uPAR expression levels in RAW 264.7 myeloid cells were evaluated in the absence or presence of a known NFkB inhibitor, BMS 345541.

## Cc1ccc2nc(NCCN)c3ncc(C)n3c2c1 [BMS 345541]
  expression levels of IL-6: reduced
  expression levels of NLRP3: reduced
  relative gene expression of PLAUR (uPAR): reduced relative gene expression
